This is an account of results in ChEMBL document CHEMBL5120970, “Cryptic Epoxytiglianes from the Kernels of the Blushwood Tree (Fontainea picrosperma)” (J Nat Prod, 2022).

Assay [1] concerns Neutrophil. In words: Induction of ROS production in human polymorphonuclear neutrophils incubated for 10 mins by DHE staining based fluorescence assay. Format: functional, cell-based.
For assay [2], the system named is K562. In words: Cytotoxicity against PKC sensitive human K562 cells assessed as inhibition of cell growth measured after 7 days by Cell Titer Aqueous96 one solution reagent assay. Format: functional, cell-based. Conditions: K562, 168 h.

A word on the EC50: it is the concentration at which the effect is half-maximal. Read a high EC50 as a need for much substance. Broadly, the IC50 is the concentration that gives 50% inhibition. The molecule `C/C=C(\C)C(=O)O[C@@H]1[C@@H](C)[C@@]2(O)[C@H]([C@@H]3C(C)(C)[C@]13OC(=O)[C@@H](C)CC)[C@@H]1O[C@]1(COC(=O)CCCCCCC/C=C\C/C=C\CCCCC)[C@@H](O)[C@]1(O)C(=O)C(C)=C[C@H]12` returned an EC50 in assay [1] of more than 3630 nM. Besides, the IC50 in assay [2] came out at 124 nM.
Take `C/C=C(\C)C(=O)O[C@@H]1[C@@H](C)[C@@]2(O)[C@H]([C@@H]3C(C)(C)[C@]13OC(=O)[C@@H](C)CC)[C@@H]1O[C@]1(CO)[C@@H](O)[C@]1(O)C(=O)C(C)=C[C@H]12` [TIGILANOL TIGLATE]: the EC50 in assay [1] is 125 nM. Further, the IC50 in assay [2] was found to be 11.9 nM.
